Consider 7 molecules from patent US8778919B2, “Cyclic anilino—pyridinotriazines” (Janssen Pharmaceutica NV, priority 2005, dated 2014).

Each structure is given as a SMILES string.

Holding throughout (assay type): biochemical
One assay deals with GSK-3α (Homo sapiens, UniProt P49840). Kind of assay: GSK-3 kinase assay (C1), GSK-3α. The note with it: 1 μM ATP, read-out: C1 Score α. Here is the method:
(§1) In vitro GSK-3 assays were performed at room temperature in a 100 μl reaction volume of 25 mM Tris (pH 7.4) containing 10 mM MgCl2.6H2O, 1 mM DTT, 0.1 mg/ml BSA, 5% glycerol, 5.7 ng/μl GSK-3β or 0.25 ng/μl GSK-3α, 5 μM biotinylated CREB peptide, 1 μM ATP, 0.85 μCi/ml ^33P-ATP and a suitable amount of a test compound. After one hour, the reaction was terminated by adding 70 μl of Stop mix (0.1 mM ATP, 5 mg/ml streptavidin coated PVT SPA beads, pH 11.0). The beads were allowed to settle overnight and the radioactivity attached to the beads was counted in a microtiter plate scintillation counter and compared with the results obtained in a control experiment (without the presence of a test compound) in order to determine the percentage of GSK-3 inhibition. The IC50 value, i.e. the concentration (M) of the test compound at which 50% of GSK-3 is inhibited, was calculated from the dose response curve obtained by performing the above-described GSK-3 assay in the presence of different amounts of the test compound. Score 1=pIC50 value<6, Score 2=pIC50 value from 6-7, Score 3=pIC50 value from 7-8, Score 4=pIC50 value>8.

For a further assay, the target named is CDK1/cyclinB (h) (Homo sapiens, UniProt P06493). Kind of assay: Kinase profiling C3.2 CDK1/cyclinB human. The note with it: test concentration of 10^−6 M. The method, then:
(§2) The in vitro inhibition of a panel of kinases was assessed using either the glass-fiber filter technology as described by Davies, S. P. et al., Biochem J. (2000), 351; p. 95-105. In the glass-fiber filter technology the activity of the kinase of interest is measured using an appropriate substrate that is incubated with the aforementioned kinase protein in the presence of (^33P) radiolabeled ATP. (^33P) Phosporylation of the substrate is subsequently measured as radioactivity bound on a glassfiber-filter.
(§3) All kinases are pre-diluted to a 10× working concentration prior to addition into the assay. The composition of the dilution buffer for each kinase is detailed below.
(§4) All substrates are dissolved and diluted to working stocks in de-ionised water, apart from histone H1 that is stored in 10× working stock in 20 mM MOPS pH 7.4.
(§5) In a final reaction volume of 25 μl, CDK1/cyclinB (h) (5-10 mU) is incubated with 8 mM MOPS pH 7.0, 0.2 mM EDTA, 0.1 mg/ml histone H1, 10 mM MgAcetate and [γ-^33P-ATP] (specific activity approx. 500 cpm/pmol, concentration as required). The reaction is initiated by the addition of the MgATP mix. After incubation for 40 minutes at room temperature, the reaction is stopped by the addition of 5 μl of a 3% phosphoric acid solution. 10 μl of the reaction is then spotted onto a P30 filtermat and washed three times for 5 minutes in 75 mM phosphoric acid and once in methanol prior to drying and scintillation counting.

Another assay addresses CDK6/cyclinD3 human (Homo sapiens, UniProt Q00534). Kind of assay: Kinase profiling C3.7 CDK6/cyclinD3 human. To be noted: CDK6/cyclinD3, test concentration of 10^−6 M. The method, then:
as §2, §3, §4
as §5, with “CDK6/cyclinD3 human” for “CDK1/cyclinB (h)”

For a further assay, the target named is CDK3/cyclinE (h) (Homo sapiens, UniProt Q00526). The assay is described as follows: Kinase profiling C3.5 CDK3/cyclinE human. The note with it: test concentration of 10^−6 M. Here is the method: as §2, §3, §4
as §5, with “CDK3/cyclinE” for “CDK1/cyclinB”

The target of a further assay is CDK2/cyclinA (h) (Homo sapiens, UniProt P24941). The assay is described as follows: Kinase profiling C3.3 CDK2/cyclinA human. The note with it: test concentration of 10^−6 M. The method, then: as §2, §3, §4
as §5, with “CDK2/cyclinA” for “CDK1/cyclinB”

The target in another assay is CDK7/cyclinH/MAT1 (h) (Homo sapiens, UniProt P50613). Kind of assay: Kinase profiling C3.8 CDK7/cyclinH/MAT1 human. The note with it: CDK7/cyclinH/MAT1, test concentration of 10^−6 M. The method, then:
as §2, §3, §4
as §5, with “CDK7/cyclinH/MAT1” for “CDK1/cyclinB”, “500 μM peptide,” for “0.1 mg/ml histone H1,”

For the next assay, the target named is GSK-3β (Homo sapiens, UniProt P49841). The assay is described as follows: GSK-3 kinase assay (C1), GSK-3β. To be noted: 1 μM ATP; for IC50: read-out: C1 Score β. Here is the method:
as §1

In a further assay the target is CDK2/cyclinE (h) (Homo sapiens, UniProt P24941). The assay is described as follows: Kinase profiling C3.4 CDK2/cyclinE human. To be noted: test concentration of 10^−6 M. The method, then:
as §2, §3, §4
as §5, with “CDK2/cyclinE” for “CDK1/cyclinB”

The target of the next assay is CDK5/p35 human (Homo sapiens, UniProt Q00535). The assay is described as follows: Kinase profiling C3.6 CDK5/p35 human. The note with it: CDK5/p35, test concentration of 10^−6 M. The method, then: as §2, §3, §4
Chain of CDK5/p35 human (Q00535 whole entry): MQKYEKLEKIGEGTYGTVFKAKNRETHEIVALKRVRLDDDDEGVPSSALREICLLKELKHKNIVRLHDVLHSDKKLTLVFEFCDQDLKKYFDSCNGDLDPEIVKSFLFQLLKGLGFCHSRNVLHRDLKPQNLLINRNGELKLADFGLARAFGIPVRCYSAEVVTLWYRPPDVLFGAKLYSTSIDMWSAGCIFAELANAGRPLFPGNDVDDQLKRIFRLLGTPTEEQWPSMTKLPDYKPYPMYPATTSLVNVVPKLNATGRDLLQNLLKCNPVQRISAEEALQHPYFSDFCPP
Chain of CDK5/p35 human (Q15078 whole entry partner): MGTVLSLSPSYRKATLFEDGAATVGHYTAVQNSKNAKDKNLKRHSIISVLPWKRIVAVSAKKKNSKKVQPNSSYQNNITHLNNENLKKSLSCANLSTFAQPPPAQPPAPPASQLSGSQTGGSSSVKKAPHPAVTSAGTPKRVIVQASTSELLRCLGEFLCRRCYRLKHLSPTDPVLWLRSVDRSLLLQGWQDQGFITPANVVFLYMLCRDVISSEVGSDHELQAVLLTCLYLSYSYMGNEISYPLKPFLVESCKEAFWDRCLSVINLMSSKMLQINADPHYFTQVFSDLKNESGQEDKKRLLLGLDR
as §5, with “CDK5/p35 human” for “CDK1/cyclinB (h)”

Chain of CDK6/cyclinD3 human (Q00534 whole entry): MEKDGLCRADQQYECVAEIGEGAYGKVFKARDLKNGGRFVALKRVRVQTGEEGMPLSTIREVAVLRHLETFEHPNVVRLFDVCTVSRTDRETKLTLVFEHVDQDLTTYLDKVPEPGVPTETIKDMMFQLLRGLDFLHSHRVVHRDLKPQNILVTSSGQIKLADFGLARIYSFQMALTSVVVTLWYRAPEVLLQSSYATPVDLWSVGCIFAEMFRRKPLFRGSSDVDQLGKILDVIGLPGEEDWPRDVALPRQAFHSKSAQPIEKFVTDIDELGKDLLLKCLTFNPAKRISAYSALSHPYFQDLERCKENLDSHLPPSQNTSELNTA
Chain of CDK6/cyclinD3 human (P30281 whole entry partner): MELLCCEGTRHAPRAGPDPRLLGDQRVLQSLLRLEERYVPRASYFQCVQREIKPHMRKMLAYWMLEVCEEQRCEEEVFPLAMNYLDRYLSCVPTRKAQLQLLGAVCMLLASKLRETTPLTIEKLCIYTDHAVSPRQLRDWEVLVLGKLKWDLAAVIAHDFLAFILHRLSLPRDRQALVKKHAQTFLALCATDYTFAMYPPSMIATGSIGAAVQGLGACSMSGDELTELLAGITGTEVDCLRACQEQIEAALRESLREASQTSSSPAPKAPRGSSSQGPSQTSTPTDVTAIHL
Chain of CDK7/cyclinH/MAT1 (h) (P50613 whole entry): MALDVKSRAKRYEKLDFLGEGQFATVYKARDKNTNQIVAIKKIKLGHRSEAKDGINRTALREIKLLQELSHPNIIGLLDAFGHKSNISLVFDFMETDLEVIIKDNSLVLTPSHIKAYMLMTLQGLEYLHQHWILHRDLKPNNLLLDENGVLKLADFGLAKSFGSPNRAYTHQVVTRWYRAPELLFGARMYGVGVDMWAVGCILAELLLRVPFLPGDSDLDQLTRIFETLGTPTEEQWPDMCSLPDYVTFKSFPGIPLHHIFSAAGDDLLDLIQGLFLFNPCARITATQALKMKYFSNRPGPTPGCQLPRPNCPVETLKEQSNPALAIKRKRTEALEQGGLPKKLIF
Chain of CDK7/cyclinH/MAT1 (h) (P51946 whole entry partner): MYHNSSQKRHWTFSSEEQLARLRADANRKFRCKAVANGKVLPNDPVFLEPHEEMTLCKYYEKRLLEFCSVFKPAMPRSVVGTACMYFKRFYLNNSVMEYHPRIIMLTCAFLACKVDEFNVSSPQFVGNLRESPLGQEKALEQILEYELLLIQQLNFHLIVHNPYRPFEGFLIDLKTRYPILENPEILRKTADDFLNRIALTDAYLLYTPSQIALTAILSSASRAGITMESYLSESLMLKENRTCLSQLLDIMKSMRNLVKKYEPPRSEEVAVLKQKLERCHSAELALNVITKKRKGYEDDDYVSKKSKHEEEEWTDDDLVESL
Chain of CDK7/cyclinH/MAT1 (h) (P51948 whole entry partner): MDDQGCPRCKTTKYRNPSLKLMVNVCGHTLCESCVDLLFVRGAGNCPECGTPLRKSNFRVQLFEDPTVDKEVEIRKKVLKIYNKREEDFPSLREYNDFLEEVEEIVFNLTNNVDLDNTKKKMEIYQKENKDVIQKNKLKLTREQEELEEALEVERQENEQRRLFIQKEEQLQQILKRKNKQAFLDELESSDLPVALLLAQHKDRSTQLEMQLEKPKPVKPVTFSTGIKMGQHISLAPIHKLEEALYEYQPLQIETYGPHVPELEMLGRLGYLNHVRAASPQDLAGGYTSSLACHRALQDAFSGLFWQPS
Chain of CDK1/cyclinB (h) (P06493 whole entry): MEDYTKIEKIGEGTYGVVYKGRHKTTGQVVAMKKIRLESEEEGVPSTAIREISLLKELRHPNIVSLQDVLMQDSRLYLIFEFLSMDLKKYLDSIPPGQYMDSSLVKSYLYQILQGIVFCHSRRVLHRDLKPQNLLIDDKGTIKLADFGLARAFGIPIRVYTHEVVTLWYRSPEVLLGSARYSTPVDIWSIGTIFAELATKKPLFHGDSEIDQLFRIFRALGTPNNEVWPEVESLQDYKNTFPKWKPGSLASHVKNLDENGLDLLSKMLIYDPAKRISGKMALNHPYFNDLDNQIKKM
Chain of CDK1/cyclinB (h) (P14635 whole entry partner): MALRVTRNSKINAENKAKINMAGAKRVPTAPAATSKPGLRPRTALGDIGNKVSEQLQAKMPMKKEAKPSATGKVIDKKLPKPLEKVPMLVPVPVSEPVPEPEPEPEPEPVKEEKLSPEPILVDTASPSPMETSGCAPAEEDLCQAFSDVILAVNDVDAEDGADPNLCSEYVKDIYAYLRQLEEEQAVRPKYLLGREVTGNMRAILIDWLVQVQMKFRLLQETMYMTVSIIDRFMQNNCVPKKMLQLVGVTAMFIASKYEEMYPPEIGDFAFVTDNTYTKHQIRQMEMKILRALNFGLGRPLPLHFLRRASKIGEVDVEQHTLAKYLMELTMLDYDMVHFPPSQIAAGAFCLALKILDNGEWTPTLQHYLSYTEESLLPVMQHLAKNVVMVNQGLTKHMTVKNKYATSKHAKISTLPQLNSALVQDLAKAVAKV
Chain of GSK-3β (P49841 whole entry, species assumed): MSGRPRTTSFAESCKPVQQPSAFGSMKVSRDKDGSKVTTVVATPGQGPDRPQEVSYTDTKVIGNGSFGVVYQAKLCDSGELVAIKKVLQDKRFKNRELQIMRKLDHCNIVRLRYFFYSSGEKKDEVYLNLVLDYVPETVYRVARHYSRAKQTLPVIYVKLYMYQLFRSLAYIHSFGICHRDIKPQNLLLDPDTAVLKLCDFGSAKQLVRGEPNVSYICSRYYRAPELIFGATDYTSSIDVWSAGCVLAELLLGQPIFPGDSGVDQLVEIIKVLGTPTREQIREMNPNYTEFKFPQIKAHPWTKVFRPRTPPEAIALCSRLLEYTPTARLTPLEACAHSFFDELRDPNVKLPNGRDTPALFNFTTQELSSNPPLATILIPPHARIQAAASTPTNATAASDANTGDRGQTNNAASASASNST
Chain of GSK-3α (P49840 whole entry, species assumed): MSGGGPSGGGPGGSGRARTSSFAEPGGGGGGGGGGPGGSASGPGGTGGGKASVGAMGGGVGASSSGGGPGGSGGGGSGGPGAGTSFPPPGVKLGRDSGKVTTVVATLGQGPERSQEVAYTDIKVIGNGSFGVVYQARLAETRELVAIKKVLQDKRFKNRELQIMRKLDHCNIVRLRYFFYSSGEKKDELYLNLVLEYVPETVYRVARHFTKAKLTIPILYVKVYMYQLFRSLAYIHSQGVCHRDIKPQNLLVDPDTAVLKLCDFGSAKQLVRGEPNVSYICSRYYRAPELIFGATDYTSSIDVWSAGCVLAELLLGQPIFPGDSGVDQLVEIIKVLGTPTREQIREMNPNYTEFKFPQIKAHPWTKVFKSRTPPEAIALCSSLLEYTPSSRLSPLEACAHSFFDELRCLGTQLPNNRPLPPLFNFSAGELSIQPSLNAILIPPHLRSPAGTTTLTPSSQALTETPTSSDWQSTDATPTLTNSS

Take `CN1CCC(=O)NCCNc2cc(ccn2)-c2ncnc(n2)Nc2cccc(c2)C1` [Compound 20]: the IC50 on GSK-3α is 100 to 1000 nM. In addition, the C3.2 score on CDK1/cyclinB (h) is 3 (Score 3 = 60-80% inhibition). Moreover, on CDK6/cyclinD3 human, the C3.7 score is 1 (Score 1 = 10-30% inhibition). In addition, on CDK3/cyclinE (h), the C3.5 score is 4 (Score 4 = >80% inhibition). For the same molecule, the C3.3 score on CDK2/cyclinA (h) is recorded as 4 (Score 4 = >80% inhibition). Also, the C3.8 score on CDK7/cyclinH/MAT1 (h) is listed as 2 (Score 2 = 30-60% inhibition). For the same molecule, on GSK-3β, the “C1 Score β” value is on record as 3 (Score 3=pIC50 value from 7-8). For the same molecule, the C3.4 score on CDK2/cyclinE (h) is 4 (Score 4 = >80% inhibition). In addition, on CDK5/p35 human, the C3.6 score is 3 (Score 3 = 60-80% inhibition).
`O=C1NCCc2cccc(c2)Nc2ncnc(n2)-c2ccnc(c2)CCCN2C[C@H](O)C[C@@H]12` [Compound 25]: the IC50 at GSK-3α and at GSK-3β was 10 to 100 nM each time. Besides, the C3.2 score on CDK1/cyclinB (h) was 3 (Score 3 = 60-80% inhibition). For the same molecule, the C3.7 score at CDK6/cyclinD3 human is on record as 2 (Score 2 = 30-60% inhibition). The C3.5 score on CDK3/cyclinE (h) is listed as 3 (Score 3 = 60-80% inhibition). Further, on CDK2/cyclinA (h), the C3.3 score was 4 (Score 4 = >80% inhibition). For the same molecule, the C3.8 score at CDK7/cyclinH/MAT1 (h) was 2 (Score 2 = 30-60% inhibition). The C3.4 score at CDK2/cyclinE (h) is 4 (Score 4 = >80% inhibition). Moreover, the C3.6 score at CDK5/p35 human is on record as 2 (Score 2 = 30-60% inhibition).
On to `CN1Cc2cccc(c2)Nc2ncnc(n2)-c2ccnc(c2)NCCCNC(=O)CCN2CCC1CC2` [Compound 23], for which the IC50 on GSK-3α and at GSK-3β was 100 to 1000 nM throughout. In addition, the C3.2 score on CDK1/cyclinB (h) is listed as 2 (Score 2 = 30-60% inhibition). In addition, the C3.7 score on CDK6/cyclinD3 human is reported as 1 (Score 1 = 10-30% inhibition). Moreover, the C3.5 score at CDK3/cyclinE (h) is recorded as 3 (Score 3 = 60-80% inhibition). For the same molecule, the C3.3 score on CDK2/cyclinA (h) is 3 (Score 3 = 60-80% inhibition). On CDK7/cyclinH/MAT1 (h), the C3.8 score is given as 1 (Score 1 = 10-30% inhibition). Further, at CDK2/cyclinE (h), the C3.4 score is 4 (Score 4 = >80% inhibition). Besides, the C3.6 score at CDK5/p35 human is given as 2 (Score 2 = 30-60% inhibition).
Regarding `O=C1NCCCNc2cc(ccn2)-c2ncnc(n2)Nc2cccc(c2)CN2CCC[C@@H]12` [Compound 21], the IC50 at GSK-3α and on GSK-3β was 100 to 1000 nM in each case. Moreover, the C3.2 score on CDK1/cyclinB (h) is 4 (Score 4 = >80% inhibition). Further, the C3.7 score on CDK6/cyclinD3 human is listed as 1 (Score 1 = 10-30% inhibition). In addition, the C3.5 score on CDK3/cyclinE (h) is given as 4 (Score 4 = >80% inhibition). For the same molecule, the C3.3 score on CDK2/cyclinA (h) is reported as 4 (Score 4 = >80% inhibition). In addition, the C3.8 score at CDK7/cyclinH/MAT1 (h) is recorded as 2 (Score 2 = 30-60% inhibition). On CDK2/cyclinE (h), the C3.4 score is recorded as 4 (Score 4 = >80% inhibition). The C3.6 score at CDK5/p35 human was 3 (Score 3 = 60-80% inhibition).
As to `CN1CCC(=O)NCCNc2cc(ccn2)-c2ncnc(n2)Nc2cccc(c2)C1` [Compound 17], the IC50 on GSK-3α and on GSK-3β was 10 to 100 nM in each case. On CDK1/cyclinB (h), the C3.2 score is reported as 4 (Score 4 = >80% inhibition). Moreover, on CDK6/cyclinD3 human, the C3.7 score is 2 (Score 2 = 30-60% inhibition). The C3.5 score on CDK3/cyclinE (h) is given as 4 (Score 4 = >80% inhibition). In addition, the C3.3 score at CDK2/cyclinA (h) is 4 (Score 4 = >80% inhibition). In addition, the C3.8 score at CDK7/cyclinH/MAT1 (h) is recorded as 3 (Score 3 = 60-80% inhibition). Also, the C3.4 score on CDK2/cyclinE (h) is listed as 4 (Score 4 = >80% inhibition). In addition, the C3.6 score at CDK5/p35 human was 4 (Score 4 = >80% inhibition).
With `O=C1CCN2CCN(CC2)Cc2cccc(c2)Nc2ncnc(n2)-c2ccnc(c2)NCCN1` [Compound 19], the IC50 at GSK-3α was in the range of 100 to 1000 nM; on GSK-3β, 10 to 100 nM. For the same molecule, at CDK1/cyclinB (h), the C3.2 score is 4 (Score 4 = >80% inhibition). Also, at CDK6/cyclinD3 human, the C3.7 score is 2 (Score 2 = 30-60% inhibition). Besides, the C3.5 score on CDK3/cyclinE (h) is listed as 4 (Score 4 = >80% inhibition). Further, on CDK2/cyclinA (h), the C3.3 score is listed as 4 (Score 4 = >80% inhibition). For the same molecule, the C3.8 score on CDK7/cyclinH/MAT1 (h) is reported as 2 (Score 2 = 30-60% inhibition). The C3.4 score at CDK2/cyclinE (h) is 4 (Score 4 = >80% inhibition). In addition, the C3.6 score at CDK5/p35 human is 3 (Score 3 = 60-80% inhibition).
Take `O=C1CCN2CCN(CC2)Cc2cccc(c2)Nc2ncnc(n2)-c2ccnc(c2)NCCCN1` [Compound 22]: the IC50 at GSK-3α and at GSK-3β was 100 to 1000 nM in each case. For the same molecule, the C3.2 score on CDK1/cyclinB (h) is on record as 4 (Score 4 = >80% inhibition). At CDK6/cyclinD3 human, the C3.7 score is 1 (Score 1 = 10-30% inhibition). In addition, at CDK3/cyclinE (h), the C3.5 score was 4 (Score 4 = >80% inhibition). The C3.3 score at CDK2/cyclinA (h) is recorded as 4 (Score 4 = >80% inhibition). Moreover, the C3.8 score on CDK7/cyclinH/MAT1 (h) is 1 (Score 1 = 10-30% inhibition). In addition, the C3.4 score at CDK2/cyclinE (h) is 4 (Score 4 = >80% inhibition). The C3.6 score on CDK5/p35 human is listed as 2 (Score 2 = 30-60% inhibition).
